Measurements from patent publication US12029730B2, “Pharmaceutical composition for preventing or treating cancer, containing N-1H-benzimidazol-2-yl-3-(1H-pyrrole-1-yl)benzamide as active ingredient” (KOREA INSTITUTE OF RADIOLOGICAL & MEDICAL SCIENCES, priority 2018, dated 2024).

Columns and labels:
MCF7 cells [1] = test: WST-8 cell viability assay, breast cancer cell line MCF7; type: cell-based, human; conditions: for cell viability, MCF7: 3.70, 11.11, 33.33 and 100 μM
Protocol: (§1) In addition, the cell line in this experiment was distributed from ATCC (American Type Culture Collection; Manassas, VA). Human-derived tumor cell lines, breast cancer cell lines MCF7 and T47D was cultured in DMEM medium containing 10% fetal bovine serum (FBS; HyClone, South Logan, UT) and 1% penicillin/streptomycin (Corning, NY, USA) at 37° C. and 5% CO2, and the BT549 breast cancer cell line was cultured in RPMI 1640 (Welgene, Daegu, Korea) as a medium used under the same conditions. Human-derived normal cell line MCF10A was cultured in DMEM/F12 (Invitrogen) medium containing 5% horse serum (Invitrogen), 1% penicillin/streptomycin, 20 ng/ml EGF (Peprotech, London, UK), […] (Sigma-Aldrich, MO, USA), 100 ng/ml cholera toxin (Cholera Toxin, Sigma-Aldrich) and 10 μg Insulin (Sigma-Aldrich) at 37° C. and 5% CO2.
Briefly, MCF7 and MCF10A cells were seeded into 96-well plates, incubated for 24 hours, and then was treated with 42 inhibitor candidates. Among the compounds, the multi-AGC kinase inhibitor AT13148 was used as a positive control. Thereafter, the absorbance was measured at 450 nm using a Versamax microplate reader (Molecular Devices, CA, USA), and the results of the experiment were shown in FIG. 1A.
(§2) In order to confirm whether the selected MKI-1 can kill only cancer cells, an experiment was performed by treating with MKI-1 and measuring whether the cell viability of breast cancer cell lines and normal cell lines was changed. WST-8 analysis (Cyto X™ cell viability assay kit, LPS solution, Daejeon, Korea) was performed according to the manufacturer's protocol. Cancer cells MCF7 and BT549 and normal cell line MCF10A cells were inoculated into a 96-well plate, cultured for 24 hours, and then treated with MASTL kinase inhibitors at various concentrations (3.70, 11.11, 33.33 and 100 μM). Thereafter, the absorbance was measured at 450 nm using a Versamax micro plate reader (Molecular Devices, CA, USA), and the results were shown in FIG. 6.

MASTL kinase = target: T1, MASTL kinase (Homo sapiens, UniProt Q96GX5); test: ADP-Glo luminescence-kinase assay; type: biochemical; conditions: 10 μM ATP, FIG. 2
T1 construct: GST; purchased Thermo Fisher Scientific
T1 sequence (Q96GX5 1-879): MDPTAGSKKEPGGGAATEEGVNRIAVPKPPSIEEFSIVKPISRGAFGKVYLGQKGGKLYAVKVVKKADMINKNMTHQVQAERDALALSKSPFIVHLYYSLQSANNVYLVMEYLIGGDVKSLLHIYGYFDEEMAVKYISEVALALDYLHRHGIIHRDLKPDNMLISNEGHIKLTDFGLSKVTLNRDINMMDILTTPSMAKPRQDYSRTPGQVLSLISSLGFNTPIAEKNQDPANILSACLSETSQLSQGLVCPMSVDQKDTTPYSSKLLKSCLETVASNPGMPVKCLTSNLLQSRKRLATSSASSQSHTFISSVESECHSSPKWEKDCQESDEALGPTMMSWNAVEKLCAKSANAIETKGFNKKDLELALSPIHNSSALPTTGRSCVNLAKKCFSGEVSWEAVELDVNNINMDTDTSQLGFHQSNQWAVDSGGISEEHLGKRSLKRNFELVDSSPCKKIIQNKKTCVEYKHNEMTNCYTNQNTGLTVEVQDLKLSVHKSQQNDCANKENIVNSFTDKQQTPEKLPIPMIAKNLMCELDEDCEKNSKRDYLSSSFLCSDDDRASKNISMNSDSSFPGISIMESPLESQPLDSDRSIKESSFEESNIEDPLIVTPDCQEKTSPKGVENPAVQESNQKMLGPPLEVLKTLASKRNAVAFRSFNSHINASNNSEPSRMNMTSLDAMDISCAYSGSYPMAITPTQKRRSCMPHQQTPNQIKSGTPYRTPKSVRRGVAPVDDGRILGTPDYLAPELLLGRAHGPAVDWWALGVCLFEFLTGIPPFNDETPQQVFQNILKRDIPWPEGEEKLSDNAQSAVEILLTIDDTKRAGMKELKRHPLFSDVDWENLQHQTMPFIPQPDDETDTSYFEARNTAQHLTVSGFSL
Protocol: A protein kinase analysis was performed using the ADP-Glo™ kinase assay kit according to the standard protocol provided by Promega. […] A solution of a serial 2-fold dilution of the MASTL kinase inhibitor (GKI-1, MKI-1 or AT13148) was prepared and MASTL kinase […], ENSA 250 ng and 10 μM ATP was mixed in a kinase reaction buffer consisting of 100 mM Tris-HCl (pH 7.5), 30 mM MgCl2, 2 mM DTT, 1 mM EDTA and 10 μM ultra-pure ATP (Promega). Thereafter, the mixture was reacted at 30° C. for 30 minutes in an E-tube, and a kinase detection reagent was added thereto, followed by reacting for 30 minutes to detect the converted ATP. Then, the reacted product was transferred to a 384-well white plate, and […] was read using a SpectraMax i3× Multi-Mode Microplate Reader (Molecular Devices), and GKI-1, N-(4-chlorophenyl)-3-(1H-pyrazol-4-yl)aniline and AT13148 were used as positive controls. The effect of inhibiting kinase activity of GKI-1 and MKI-1 and its IC50 confirmed through the reading result were shown in FIG. 2. In addition, enzyme activity assay was performed under the same conditions except for the treatment of each concentration of MKI-1 (0, 6.25, 12.5, 25, 50 and 100 μM) through western blot, and it was shown in FIG. 3.

MCF7 cells [2] = test: 3D culture spheroid formation; type: cell-based, human; conditions: MCF7 3D culture, AT13148 2 μM, GKI-1 10 μM, MKI-1 10 μM, FIG. 9
Protocol: 3D culture was performed according to the protocol of the manufacturing company TheWell Bioscience. It was inoculated into 24-wells containing a DMEM mixture containing 10,000 MCF7 cells in an MCF7 cell:hydrogel solution in a ratio of 1:3 (v/v) and VitroGel™ 3D-RGD diluted with 0.1% PBS in a ratio of 1:3 (v/v) of a hydrogel:diH2O. Thereafter, incubation was performed at 37° C. for 15 minutes to stabilize the VitroGel 3D-RGD hydrogel. To cover the hydrogel, the same volume of DMEM as the hydrogel was added, and the next day, the hydrogel was treated with a DMSO base drug containing DMSO, AT13148 (2 μM), GKI-1 (10 μM) and MKI-1 (10 μM). The medium was exchanged every 2 days for 14 to 20 days.

BT549 cells = test: WST-8 cell viability assay, breast cancer cell line BT549; type: cell-based, human; conditions: FIG. 6; for cell viability, BT549: 3.70, 11.11, 33.33 and 100 μM
Protocol: as §1, §2

`O=C(Nc1nc2ccccc2[nH]1)c1cccc(-n2cccc2)c1` [MKI-1, N-1H-benzimidazol-2-yl-3-(1H-pyrrol-1-yl) benzamide] was tested, and the “survival rate of cancer cells, MCF7” value (MCF7 cells [1]; 33.33 μM or more, FIG. 6) was “significantly reduced”, the “cell viability, MCF7” value (MCF7 cells [1]; FIG. 6) was “decreases cell viability in a dose-dependent manner” and the “growth of the treated cancer cell line (MCF7)” value (MCF7 cells [1]; screen of 42 single compounds, FIG. 1A) was “significantly inhibited”. The IC50 (MASTL kinase) was 11.6 µM, the “size of cancer cell spheroid” value (MCF7 cells [2]) was “significantly reduced” and the “survival rate of cancer cells, BT549” value (BT549 cells; 33.33 μM or more) was “significantly reduced”. The “cell viability, BT549” value (BT549 cells) was “decreases cell viability in a dose-dependent manner”.
For `Clc1ccc(Nc2cccc(-c3cn[nH]c3)c2)cc1` [GKI-1, N-(4-chlorophenyl)-3-(1H-pyrazol-4-yl)aniline, reference compound], the “cell viability, MCF7” value (MCF7 cells [1]; FIG. 6) was “decreases cell viability in a dose-dependent manner”, the IC50 (MASTL kinase) was 12 µM and the “size of cancer cell spheroid” value (MCF7 cells [2]) was “hardly decreased”. The “cell viability, BT549” value (BT549 cells) was “decreases cell viability in a dose-dependent manner”.
